Measured values published in US8455475B2 (Gruenenthal GmbH, priority 2009, dated 2013).

molecular target: T1, rat B1R (bradykinin receptor 1) (Rattus norvegicus, UniProt P97583); assay: FLIPR Ca2+ assay (Fluo-4) on CHO K1 cells stably transfected with the B1R gene of the rat (rB1R cells): % inhibition at 10 μM / IC50, agonist Des-Arg9-bradykinin; format: cell-based; conditions: CHO-K1, rat B1R
T1 construct: expressed in transfected cells; host or cells: CHO K1 cells
T1 sequence (P97583 1-337): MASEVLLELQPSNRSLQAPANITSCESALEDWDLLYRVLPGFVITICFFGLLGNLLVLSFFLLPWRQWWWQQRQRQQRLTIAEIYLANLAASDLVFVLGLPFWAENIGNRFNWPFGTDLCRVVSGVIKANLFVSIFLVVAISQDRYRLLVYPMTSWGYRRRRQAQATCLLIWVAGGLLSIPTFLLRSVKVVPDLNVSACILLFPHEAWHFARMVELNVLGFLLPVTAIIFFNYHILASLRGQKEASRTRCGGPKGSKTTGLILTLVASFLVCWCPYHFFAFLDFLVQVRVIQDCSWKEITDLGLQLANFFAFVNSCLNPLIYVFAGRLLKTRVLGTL
How it was run: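 Loading with Fluo-4 occurs for 60 min at 37 °C, or alternatively in buffer A, before FLIPR measurement. Compounds are applied, incubated 10–20 min, and then the EC80 agonist is added. Antagonism appears as reduced peak Ca2+ signal relative to maximal inhibition.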

| inhibition at 10 µM [%] | SMILES |
| --- | --- |
| 71 | Cn1nc(C(C)(C)C)cc1C(=O)N1CCC2(CCN(C(=O)c3ccc4c(c3)C(NC(=O)c3sccc3Cl)CC4)C2)CC1 (centres unmarked) [IND_CC-587, N-[6-[8-(5-tert-Butyl-2-methyl-2H-pyrazole-3-carbonyl)-2,8-diazaspiro[4.5]-decane-2-carbonyl]-2,3-dihydro-1H-inden-1-yl]-3-chloro-thiophene-2-carboxylic acid amide] |
| 61 | Cc1cc(C(=O)N2CCC3(CCN(C(=O)c4ccc5c(c4)C(NC(=O)c4sccc4Cl)CC5)C3)CC2)n(C(C)(C)C)n1 (centres unmarked) [IND_CC-588, N-[6-[8-(2-tert-Butyl-5-methyl-2H-pyrazole-3-carbonyl)-2,8-diazaspiro[4.5]-decane-2-carbonyl]-2,3-dihydro-1H-inden-1-yl]-3-chloro-thiophene-2-carboxylic acid amide] |
| 81 | CN(C(=O)c1ccccc1Cl)C1CCc2ccc(C(=O)N3CCC4(CCN(C(=O)C5CC5)CC4)C3)cc21 (centres unmarked) [IND_CC-589, 2-Chloro-N-[6-[8-(cyclopropanecarbonyl)-2,8-diazaspiro[4.5]decane-2-carbonyl]-2,3-dihydro-1H-inden-1-yl]-N-methyl-benzamide] |
| 86 | CN(C(=O)c1ccccc1Cl)C1CCc2ccc(C(=O)N3CCC4(CCN(C(=O)CC(C)(C)C)CC4)C3)cc21 (centres unmarked) [IND_CC-590, 2-Chloro-N-[6-[8-(3,3-dimethyl-butanoyl)-2,8-diazaspiro[4.5]decane-2-carbonyl]-2,3-dihydro-1H-inden-1-yl]-N-methyl-benzamide] |
| 62 | CN(C(=O)c1ccccc1Cl)C1CCc2ccc(C(=O)N3CCC4(CCN(C(=O)c5ccc(F)cc5Cl)CC4)C3)cc21 (centres unmarked) [IND_CC-591, 2-Chloro-N-[6-[8-(2-chloro-4-fluoro-benzoyl)-2,8-diazaspiro[4.5]decane-2-carbonyl]-2,3-dihydro-1H-inden-1-yl]-N-methyl-benzamide] |
| 85 | CN(C(=O)c1ccccc1Cl)C1CCc2ccc(C(=O)N3CCC4(CCN(C(=O)Cc5ccc(Cl)cc5)CC4)C3)cc21 (centres unmarked) [IND_CC-592, 2-Chloro-N-[6-[8-[2-(4-chlorophenyl)-acetyl]-2,8-diazaspiro[4.5]decane-2-carbonyl]-2,3-dihydro-1H-inden-1-yl]-N-methyl-benzamide] |
| 50 | CN(C(=O)c1ccccc1Cl)C1CCc2ccc(C(=O)N3CCC4(CCN(C(=O)c5cc(C(C)(C)C)nn5C)CC4)C3)cc21 (centres unmarked) [IND_CC-593, N-[6-[8-(5-tert-Butyl-2-methyl-2H-pyrazole-3-carbonyl)-2,8-diazaspiro[4.5]-decane-2-carbonyl]-2,3-dihydro-1H-inden-1-yl]-2-chloro-N-methyl-benzamide] |
| 91 | O=C(NC1CCc2ccc(C(=O)N3CCC4(CC3)CCN(C(=O)c3cnccn3)CC4)cc21)c1ccccc1Cl (centres unmarked) [IND_CC-594, 2-Chloro-N-[6-[9-(pyrazine-2-carbonyl)-3,9-diazaspiro[5.5]undecane-3-carbonyl]-2,3-dihydro-1H-inden-1-yl]-benzamide] |
| 91 | CSc1ncccc1C(=O)N1CCC2(CCN(C(=O)c3ccc4c(c3)C(NC(=O)c3ccccc3Cl)CC4)CC2)CC1 (centres unmarked) [IND_CC-595, 2-Chloro-N-[6-[9-(2-methylsulfanyl-pyridine-3-carbonyl)-3,9-diazaspiro[5.5]undecane-3-carbonyl]-2,3-dihydro-1H-inden-1-yl]-benzamide] |
| 94 | N#Cc1ccc(C(=O)N2CCC3(CC2)CCN(C(=O)c2ccc4c(c2)C(NC(=O)c2ccccc2Cl)CC4)CC3)cc1 (centres unmarked) [IND_CC-596, 2-Chloro-N-[6-[9-(4-cyano-benzoyl)-3,9-diazaspiro[5.5]undecane-3-carbonyl]-2,3-dihydro-1H-inden-1-yl]-benzamide] |
| 101 | O=C(NC1CCc2ccc(C(=O)N3CCC4(CC3)CCN(C(=O)C3CC3)CC4)cc21)c1ccccc1Cl (centres unmarked) [IND_CC-597, 2-Chloro-N-[6-[9-(cyclopropanecarbonyl)-3,9-diazaspiro[5.5]undecane-3-carbonyl]-2,3-dihydro-1H-inden-1-yl]-benzamide] |
| 96 | CC(C)(C)CC(=O)N1CCC2(CC1)CCN(C(=O)c1ccc3c(c1)C(NC(=O)c1ccccc1Cl)CC3)CC2 (centres unmarked) [IND_CC-598, 2-Chloro-N-[6-[9-(3,3-dimethyl-butanoyl)-3,9-diazaspiro[5.5]undecane-3-carbonyl]-2,3-dihydro-1H-inden-1-yl]-benzamide] |
| 96 | O=C(NC1CCc2ccc(C(=O)N3CCC4(CC3)CCN(C(=O)c3ccc(F)cc3Cl)CC4)cc21)c1ccccc1Cl (centres unmarked) [IND_CC-599, 2-Chloro-N-[6-[9-(2-chloro-4-fluoro-benzoyl)-3,9-diazaspiro[5.5]undecane-3-carbonyl]-2,3-dihydro-1H-inden-1-yl]-benzamide] |
| 100 | O=C(NC1CCc2ccc(C(=O)N3CCC4(CC3)CCN(C(=O)c3ccc(F)cc3F)CC4)cc21)c1ccccc1Cl (centres unmarked) [IND_CC-600, 2-Chloro-N-[6-[9-(2,4-difluoro-benzoyl)-3,9-diazaspiro[5.5]undecane-3-carbonyl]-2,3-dihydro-1H-inden-1-yl]-benzamide] |
| 77 | Cn1nc(C(C)(C)C)cc1C(=O)N1CCC2(CCN(C(=O)c3ccc4c(c3)C(NC(=O)c3ccccc3Cl)CC4)CC2)CC1 (centres unmarked) [IND_CC-601, N-[6-[9-(5-tert-Butyl-2-methyl-2H-pyrazole-3-carbonyl)-3,9-diazaspiro-[5.5]undecane-3-carbonyl]-2,3-dihydro-1H-inden-1-yl]-2-chloro-benzamide] |
| 95 | Cc1cc(C(=O)N2CCC3(CCN(C(=O)c4ccc5c(c4)C(NC(=O)c4ccccc4Cl)CC5)CC3)CC2)n(C(C)(C)C)n1 (centres unmarked) [IND_CC-602, N-[6-[9-(2-tert-Butyl-5-methyl-2H-pyrazole-3-carbonyl)-3,9-diazaspiro-[5.5]undecane-3-carbonyl]-2,3-dihydro-1H-inden-1-yl]-2-chloro-benzamide] |
| 75 | O=C(c1ccc2c(c1)C(N(C(=O)c1ccccc1Cl)C1CC1)CC2)N1CCC2(CCN(C(=O)C3CC3)CC2)C1 (centres unmarked) [IND_CC-603, 2-Chloro-N-[6-[8-(cyclopropanecarbonyl)-2,8-diazaspiro[4.5]decane-2-carbonyl]-2,3-dihydro-1H-inden-1-yl]-N-cyclopropyl-benzamide] |
| 94 | CC(C)(C)CC(=O)N1CCC2(CC1)CCN(C(=O)c1ccc3c(c1)C(N(C(=O)c1ccccc1Cl)C1CC1)CC3)C2 (centres unmarked) [IND_CC-604, 2-Chloro-N-cyclopropyl-N-[6-[8-(3,3-dimethyl-butanoyl)-2,8-diazaspiro[4.5]decane-2-carbonyl]-2,3-dihydro-1H-inden-1-yl]-benzamide] |
| 66 | O=C(c1ccc2c(c1)C(N(C(=O)c1ccccc1Cl)C1CC1)CC2)N1CCC2(CCN(C(=O)c3ccc(F)cc3Cl)CC2)C1 (centres unmarked) [IND_CC-605, 2-Chloro-N-[6-[8-(2-chloro-4-fluoro-benzoyl)-2,8-diazaspiro[4.5]decane-2-carbonyl]-2,3-dihydro-1H-inden-1-yl]-N-cyclopropyl-benzamide] |
| 66 | O=C(c1ccc2c(c1)C(N(C(=O)c1ccccc1Cl)C1CC1)CC2)N1CCC2(CCN(C(=O)c3ccc(F)cc3F)CC2)C1 (centres unmarked) [IND_CC-606, 2-Chloro-N-cyclopropyl-N-[6-[8-(2,4-difluoro-benzoyl)-2,8-diazaspiro[4.5]decane-2-carbonyl]-2,3-dihydro-1H-inden-1-yl]-benzamide] |
